The record followed here is a melting point compilation (Tetko et al.; mined from patent text by program, amines drawn as free bases though some values may be those of a salt).

Regarding `CCOc1cc(C(C)C)ccc1C1CCN(CCCCNC(=O)c2ccc(NC(=O)c3ccc(Cl)cc3)cc2)CC1`, the melting point was 242 °C. Consider `COC(=O)[C@@H](Cc1ccccc1)NC(=O)[C@@H](Cc1c[nH]c2ccccc12)NC(=O)OCc1ccccc1`, for which the melting point lay within 130 to 131 °C.

Consider `COc1cccc2c(=O)c(C(N)=O)c(N)oc12`, for which the melting point was 302 °C. `COC(=O)c1ccccc1-n1c(CCl)nc2cc(Cl)ccc2c1=O` gave a melting point of 150 to 152 °C. For `CC(C)Oc1ccc(Nc2nc(=O)n(C(C)C)c(=O)n2Cc2ccc(Cl)cc2)cc1Cl` the value was 167 °C. For `CCC1(CO)COCOC1` the value was 95 to 102 °C.

As to `CN1c2ccc(C=C3SC(=O)NC3=O)cc2CCC1Cc1ccccc1` (stereo unspecified), the melting point lay in the range of 214 to 217 °C. For `Clc1cc(Br)ccc1OCc1ccccc1` the value was 59.5 to 60 °C; for `O=C(Nc1nc(-c2ccc(OC(F)F)cc2)cs1)C1CC1`, 202 to 203 °C.

In turn, `CCC1CC(=O)N(Cc2cccc(NS(C)(=O)=O)c2)N=C1c1ccc(OC)c(OC)c1` (stereo unspecified) displayed a melting point of 126 °C. Consider `Cc1[nH]cnc1/C=C/C(=O)c1c(C)sc2ccccc12`, for which the melting point was 154 to 156 °C. For `COc1cc(SC)ccc1O` the value was 47 to 49 °C; for `CC=C1CCC2C3CCC4CC(O)C(OCC)CC4(C)C3C(N(C)C)CC12C` (stereo unspecified), 63 to 78 °C; for `Nn1c2c(c3ccccc3c1=O)C(=O)c1ccccc1-2`, 272 to 274 °C. Compound `COc1cc(OC)c2c(c1)C(C)(C)C1(C=Cc3cc([N+](=O)[O-])cc(OC)c3S1)N2C` (stereo unspecified) yielded a melting point of 131 °C.

Turning to `CC(=O)CCc1nsc2ccc(-n3c(=O)cc(C(F)(F)F)n(C)c3=O)cc12`, the melting point lay in the range of 198 to 199 °C.

On to `COc1cn(-c2ccc(-n3cc(F)c(F)c3)cc2OC(F)F)nc(-c2ccnn2-c2ccccc2)c1=O`, for which the melting point fell in the range of 168 to 170 °C. `C[C@@H](c1ccc(C(=O)N(C)NC(N)=S)cc1)[C@](O)(Cn1cncn1)c1ccc(F)cc1F` had a melting point of 172 to 173 °C.

Turning to `Cc1cc2c(c3c1C(c1ccc(C(C)C)cc1)CO3)CCC2` (stereo unspecified), the melting point fell in the range of 77 to 78 °C.

`Cc1nc(NC(=O)c2cnn3c(C(F)(F)F)cc(-c4ccc(C(F)(F)F)cc4)nc23)sc1S(=O)(=O)NCCN(C)C` had a melting point of 235 °C. In the case of `CN(C)c1nc(N)nc2c1ncn2C1C=CC(CO)C1` (stereo unspecified), the melting point was 173 to 174 °C.

In turn, `Oc1ccc(-c2ncc3ncc(Nc4ncccn4)cc3n2)cc1` returned a melting point greater than 268 °C. `CCC1(c2ccccc2)Cc2cc(OCC(=O)O)c(Cl)c(Cl)c2C1=O` (stereo unspecified): the melting point was 187 to 189 °C. In the case of `O=C(CCl)N1CCC(Cc2ccc(F)cc2)CC1`, the melting point lay within 85 to 87 °C. For `CCCNc1ncnc2c1ncn2CCCN1CCC(COc2ccccc2)CC1` the value was 62 to 63 °C; for `Cc1c(NCCN2C(=O)c3ccccc3C2=O)c(=O)n(C)c(=O)n1C`, 178 to 180 °C.

`CNS(=O)(=O)OCCOc1ccccc1` had a melting point of 66 to 68 °C.

Compound `NS(=O)(=O)c1ncccc1NC=O` had a melting point of 183 °C. For `CCOC(=O)C1(C)Oc2c(OC)cccc2C1=O` (stereo unspecified) the value was 81 to 82 °C. For `CN(N=Cc1ccccc1)C(=NC(=O)CN1C(=O)c2ccccc2C1=O)NCCCOc1cccc(CN2CCCCC2)c1` the value was 84.5 °C. For `Nc1ccc(Oc2ccccc2Oc2ccc(N)c(O)c2)cc1O` the value was greater than 180 °C; for `CC(C)(C)CN1C(=O)C2CC2(c2ccc(N)cc2)C1=O` (stereo unspecified), 118 to 119 °C. As to `O=C1NC(=Cc2ccccc2F)C(=O)N1c1cc(F)ccc1F`, the melting point lay within 180 to 183 °C.

`CN1C(=O)[C@@H](NC(=O)CCC2CCCCC2)C[C@@H](c2ccccc2)c2ccccc21` (relative stereo) returned a melting point of 156 to 158 °C. Turning to `O=C(c1ccc(Br)cc1)c1ccc(N2CCOCC2)cc1`, the melting point fell in the range of 178 to 179 °C. For `CS(=O)(=O)OCCCCCc1ccc(OCc2coc(/C=C/c3ccccc3)n2)cc1` the value was 105 to 106 °C; for `COC(=O)c1cc2ccc(C(=O)OC(C)(C)C)cc2[nH]1`, 189 to 190 °C; for `COc1ccc2c(c1)OC(C(=O)O)Oc1ccccc1C2` (stereo unspecified), 149 to 153 °C. For `O=S(=S)(OC1O[C@H](COCc2ccccc2)[C@@H](OCc2ccccc2)[C@H](OCc2ccccc2)[C@H]1OCc1ccccc1)c1ccccc1` (stereo partly specified) the value was 106 to 108 °C; for `CC1C(=O)N(c2ccc(Cl)cc2)C(=S)N1c1ccc(Cc2ccccc2)cc1` (stereo unspecified), 144 °C. Consider `N=C(N)NCCc1ccc(OCCC2Oc3ccccc3N(Cc3ccc4ccccc4c3)C2=O)cc1` (stereo unspecified), for which the melting point is 173 to 178 °C. With `CCn1cc(-c2ccccc2)c(=O)c(-c2ccccc2)c1`, the melting point amounted to 171 °C. For the compound `Nc1ccc(C2CCNC2)c(F)c1` (stereo unspecified), the melting point fell in the range of 108 to 109 °C. For `CNc1cc(C(O)CS(C)(=O)=O)cc(N(C)C(C)=O)c1C` (stereo unspecified) the value was 191 to 192 °C; for `Cc1ccc(C(=O)NC(NC(=S)Nc2ccccc2)C(F)(F)F)cc1` (stereo unspecified), 205 to 206 °C; for `O=C1NC(=O)C(C2CCc3cc(O)ccc32)S1` (stereo unspecified), 108 to 112 °C. For the compound `CCOC(=O)c1cc2ccccc2nc1C`, the melting point lay in the range of 70 to 72 °C.

Take `CNC(=O)c1c(I)c(NC(C)=O)c(I)c(C(=O)NCCC(=O)O)c1I`: the melting point turned out to be 190 °C. For `CSc1ccc(-c2[nH]c3cccc4c3c2CCNC4=O)cc1` the value was 250 to 251 °C; for `CC(C)(C)NC(=O)OC1CCOC1=O` (stereo unspecified), 104 to 106 °C.

Turning to `O=C(Nc1cccnn1)N1CCN(c2nc(-c3cccc(F)c3)cs2)CC1`, the melting point was in the range of 176 to 177 °C. The compound `CC1=C(C(C)O)C(C)(C)CCC1=NO` (stereo unspecified) displayed a melting point of 131 to 135 °C. For `CC(C)C[C@H](NC(=O)OCc1ccccc1)C(=O)N[C@@H](Cc1ccccc1)C(=O)CSCc1ccco1` the value was 77 to 78 °C; for `C=CC(=O)OCc1cn(-c2ccccc2)nn1`, 55 to 56 °C. For `CCOC(=O)c1ccc2c(c1)C(=C1CCN(C)CC1)c1ccccc1CC2` the value was 85 to 87 °C. The compound `CCC(Cl)c1nc2c(C(F)(F)F)cccc2c(=O)o1` (stereo unspecified) showed a melting point of 65 to 70 °C. For `CCOc1c(C(=O)c2ccccc2)cnc2[nH]ncc12` the value was 195 to 197 °C.

Turning to `O=c1[nH]c2cc(Cl)ccc2c(O)c1Sc1ccc([N+](=O)[O-])cc1`, the melting point was greater than 300 °C. For `CN1C(=O)CC[C@]2(C)c3ccc(-c4ccc([N+](=O)[O-])cc4)cc3CC[C@@H]12` the value was 59 to 60 °C; for `O=C(Nc1ccc(C(F)(F)F)cc1Cl)[C@H]1[C@H](c2ccccc2)C12CCCC2` (relative stereo), 131 to 133 °C; for `COc1cc2nc(N3CCN(C(=O)C4CC=CC4)CC3)nc(N)c2cc1OC`, 216 to 218 °C. For `COC(C)(CC(=O)NC1CCCCC1)OC` the value was 66 °C; for `CCOC(=O)c1cc(O)c(C(=O)NCc2ccccc2)cc1O`, 110 °C; for `CCCCc1cc2cc(NS(C)(=O)=O)ccc2o1`, 105 to 106 °C. For `O=C1C(CCS(=O)c2ccccc2)C(=O)N(c2ccccc2)N1c1ccccc1` (stereo unspecified) the value was 130 to 132 °C; for `CC(C)C[C@H](NC(=O)[C@H](Cc1ccccc1)NCC(S)C(N)Cc1ccccc1)C(=O)O` (stereo partly specified), 123 to 160 °C. Consider `CCCCOCCOc1ccc(-c2ccc(N3CCCC3)c(C=C(CC)C(=O)O)c2)cc1`, for which the melting point is 155 to 156 °C. With `Cc1cccc(-c2ccnc3c(C#N)cnn23)c1`, the melting point fell in the range of 161 to 162 °C.

Turning to `CC1(C)CCCC(C)(C)N1c1nc(Cl)cc(N2CCCC2)n1`, the melting point lay within 130 to 135 °C. For `O=C1C(=O)c2ccc(-c3cccnc3)cc2C2=C1SCC1(CCN(C(=O)c3cccc(Cl)c3)CC1)O2` the value was 240 to 242 °C; for `c1ccc(-c2nc(-c3ccc4c(c3)OCO4)sc2-c2ccccc2)cc1`, 121 to 124 °C; for `CC1(C)CC(=O)Nc2cc3nc(-c4ccc(S(=O)(=O)O)cc4)[nH]c3cc21`, greater than 300 °C. Compound `COc1cc(C(=O)N2CCC(CCN3CCC(C(=O)c4nc5ccccc5n4Cc4ccccn4)CC3)(c3ccccc3)C2)cc(OC)c1OC` (stereo unspecified) returned a melting point of 84 to 89 °C. The compound `COc1cccc(NC(=O)N=C2CCCN2C)c1` displayed a melting point of 123 to 125 °C. For `COc1cc(OCCOCc2ccccc2)cc2nc(-c3cc(C)nc(C)c3)[nH]c(=O)c12` the value was 178 to 180 °C; for `NC(=O)NCCSc1ccc2nccn2n1`, 216 to 217 °C; for `N#Cc1cccnc1N1CCN(CC(=O)Nc2cc(C(F)(F)F)ccc2F)CC1`, 130 to 133 °C. For `CCOC(=O)c1cc2cc(C)c(C(F)(F)F)cc2n1[C@H](C)CNC(=O)OC(C)(C)C` the value was 103 to 105 °C. For `CN1CCC(C2(O)c3ccc(Cl)cc3Sc3ccc(F)cc32)CC1` (stereo unspecified) the value was 133 to 142 °C; for `CC(C)Oc1ccc(CCCO)c(Oc2ncc(Cl)cc2Cl)c1`, 57 to 59 °C; for `CC(C)(C)c1cc(C=O)c(O)c(C(F)(F)F)c1`, 56 to 57.5 °C.

In the case of `O=S(=O)(NCc1ccncc1)c1ccc(Br)s1`, the melting point was 159 °C. For `COc1ccc(OC)c2nc(Cl)c(C=O)cc12` the value was 177 to 178 °C; for `O=C(CCl)Oc1ccc(OC(=O)CCl)cc1`, 127 to 128 °C. As for `CCN(CC)C(=O)c1cc2ccccc2c(-c2cccc(C(F)(F)F)c2)n1`, the melting point is 76 °C. The compound `N#CC(=Cc1ccc(O)c(O)c1)C(=O)NCCCNC(=O)C(C#N)=Cc1ccc(O)c(O)c1` registered a melting point of 274 °C.

`CC(=S)Nc1ccc[nH]1` yielded a melting point of 93 to 94 °C. `CCCOC(=O)C=CC1C(C(=O)O)C1(C)C` (stereo unspecified): the melting point was 59 °C. For `Cc1nc2n(c1CC#N)CCCC2OCc1ccccc1` (stereo unspecified) the value was 132 to 134 °C; for `O=C(O)c1ccccc1OCC(F)(F)F`, 85 to 86.5 °C; for `COc1ccccc1-c1cccc2c1OC(CN)CN2C` (stereo unspecified), 90 °C.
